Results taken from patent publication US8466161B2, “Hydroxamate derivative, a production method for the same, and a pharmaceutical composition comprising the same” (Chong Kun Dang Pharmaceutical Corp., priority 2009, dated 2013).

system: HL60 cell line; test: Inhibitory effect on growth of HL60 cell line (MTT); type: cell-based; details: Homo sapiens, HL-60, 72 h, 3 days culture
Experimental: In the culture of HL60 cells, 10% FBS-containing RPMI1640 medium was used Each of test substances was serially diluted in DMSO to a concentration of 10 mg/ml and serially diluted in PBS to a final concentration ranging from 100 μg/ml to 0.03 μg/ml. 20 μl (micro-liter) of each of the serially diluted test substances and 180 μl (micro-liter) of a medium containing 60×10^4 cells/ml were added to a 96-well plate and cultured under conditions of 37° C. and 5% CO2 for 3 days. After completion of the culture, 50 μl (micro-liter) of a solution of 1.25 mg/ml MTT (3-(4,5-dimethylthiazol-2-yl)-2,5-diphenyltetrazolium bromide) in PBS was added to each well of the plate and incubated at 37° C. for 3 hours. The formed formazan crystal was dissolved in 150 μl (micro-liter) of DMSO, and the absorbance at 570 nm was measured.

How did the IC50 turn out when `COc1ccc(C(=O)N(CCCCCCC(=O)NO)c2ccc(-c3ccc4cc[nH]c4c3)cc2)cc1` [Compound 180, N-(4-(1H-indol-6-yl)phenyl)-N-(7-(hydroxyamino)-7-oxoheptyl)-4-methoxybenzamide] was run?
Its IC50 is 0.02 to 0.05 µM.

`O=C(CCCCCCN(C(=O)c1cccnc1)c1ccc(-c2ccc3cc[nH]c3c2)cc1)NO` [Compound 181, N-(4-(1H-indol-6-yl)phenyl)-N-(7-(hydroxyamino)-7-oxoheptyl)nicotinamide] was tested. Which IC50 did it give?
Its IC50 is 0.02 to 0.05 µM.

Which IC50 does the source give for `O=C(CCCCCCN(C(=O)c1ccccn1)c1ccc(-c2ccc3cc[nH]c3c2)cc1)NO` [Compound 211, N-(4-(1H-indol-6-yl)phenyl)-N-(7-(hydroxyamino)-7-oxoheptyl)picolinamide] here?
Its IC50 is 0.05 to 0.1 µM.

For `COc1cccc(NC(=O)N(CCCCCCC(=O)NO)c2ccc(-c3ccc4cc[nH]c4c3)cc2)c1` [Compound 256, 7-(1-(4-(1H-indol-6-yl)phenyl)-3-(3-methoxyphenyl)ureido)-N-hydroxyheptanamide], which IC50 is on record?
Its IC50 is 0.05 to 0.1 µM.

`COc1cc(NC(=O)N(CCCCCCC(=O)NO)c2ccc(-c3ccc4cc[nH]c4c3)cc2)cc(OC)c1` [Compound 260, 7-(1-(4-(1H-indol-6-yl)phenyl)-3-(3,5-dimethoxyphenyl)ureido)-N-hydroxyheptanamide] was tested. Which IC50 did it give?
Its IC50 is 0.05 to 0.1 µM.

For `O=C(CCCCCCN(c1ccc(-c2ccc3cc[nH]c3c2)cc1)S(=O)(=O)c1cccnc1)NO` [Compound 263, 7-(N-(4-(1H-indol-6-yl)phenyl)pyridine-3-sulfonamido)-N-hydroxyheptanamide], which IC50 is on record?
Its IC50 is 0.02 to 0.05 µM.

With `CS(=O)(=O)N(CCCCCCC(=O)NO)c1ccc(-c2ccc3cc[nH]c3c2)cc1` [Compound 264, 7-(N-(4-(1H-indol-6-yl)phenyl)methylsulfonamido)-N-hydroxyheptanamide] as the molecule, how does the IC50 read?
Its IC50 is 0.02 to 0.05 µM.

With `CN(C)CC(=O)N(CCCCCCC(=O)NO)c1ccc(-c2ccc3cc[nH]c3c2)cc1` [Compound 265, 7-(N-(4-(1H-indol-6-yl)phenyl)-2-(dimethylamino)acetamido)-N-hydroxyheptanamide] as the molecule, how does the IC50 read?
The IC50 was 0.05 to 0.1 µM.

How did the IC50 turn out when `CCOC(=O)N(CCCCCCC(=O)NO)c1ccc(-c2ccc3cc[nH]c3c2)cc1` [Compound 267, Ethyl 4-(1H-indol-6-yl)phenyl(7-(hydroxyamino)-7-oxoheptyl)carbamate] was run?
The IC50 was 0.05 to 0.1 µM.

With `Cn1ncc2ccc(-c3ccc(N(CCCCCCC(=O)NO)C(=O)c4cccnc4)cc3)cc21` [Compound 270, N-(7-(hydroxyamino)-7-oxoheptyl)-N-(4-(1-methyl-1H-indazol-6-yl)phenyl)nicotinamide] as the molecule, how does the IC50 read?
The IC50 was 0.05 to 0.1 µM.

Which IC50 does the source give for `CNC(=O)N(CCCCCCC(=O)NO)c1ccc(-c2ccc3cc[nH]c3c2)cc1` [Compound 275, 7-(1-(4-(1H-indol-6-yl)phenyl)-3-methylureido)-N-hydroxyheptanamide] here?
The IC50 was 0.05 to 0.1 µM.

`CCS(=O)(=O)N(CCCCCCC(=O)NO)c1ccc(-c2ccc3cc[nH]c3c2)cc1` [Compound 276, 7-(N-(4-(1H-indol-6-yl)phenyl)ethylsulfonamido)-N-hydroxyheptanamide] was tested. Which IC50 did it give?
The IC50 was 0.02 to 0.05 µM.

`CN(C)S(=O)(=O)N(CCCCCCC(=O)NO)c1ccc(-c2ccc3cc[nH]c3c2)cc1` [Compound 277, 7-((4-(1H-indol-6-yl)phenyl)(N,N-dimethylsulfamoyl)amino)-N-hydroxyheptanamide] was tested. Which IC50 did it give?
The IC50 was 0.05 to 0.1 µM.

Which IC50 does the source give for `Cn1ncc2ccc(-c3ccc(N(CCCCCCC(=O)NO)S(C)(=O)=O)cc3)cc21` [Compound 284, N-hydroxy-7-(N-(4-(1-methyl-1H-indazol-6-yl)phenyl)methylsulfonamido)heptanamide] here?
The IC50 was 0.05 to 0.1 µM.

With `CCNC(=O)N(CCCCCCC(=O)NO)c1ccc(-c2ccc3cc[nH]c3c2)cc1` [Compound 295, 7-(1-(4-(1H-indol-6-yl)phenyl)-3-ethylureido)-N-hydroxyheptanamide] as the molecule, how does the IC50 read?
Its IC50 is 0.05 to 0.1 µM.

`Cc1cc2cc(-c3ccc(N(CCCCCCC(=O)NO)S(C)(=O)=O)cc3)ccc2[nH]1` [Compound 296, N-hydroxy-7-(N-(4-(2-methyl-1H-indol-5-yl)phenyl)methylsulfonamido)heptanamide] was tested. Which IC50 did it give?
Its IC50 is 0.05 to 0.1 µM.

`CS(=O)(=O)N(CCCCCCC(=O)NO)c1ccc(-c2ccc3[nH]ccc3c2)cc1` [Compound 303, 7-(N-(4-(1H-indol-5-yl)phenyl)methylsulfonamido)-N-hydroxyheptanamide] was tested. Which IC50 did it give?
The IC50 was 0.01 to 0.02 µM.

How did the IC50 turn out when `O=C(CCCCCCN(C(=O)c1ccccn1)c1ccc(-c2ccc3[nH]ccc3c2)cc1)NO` [Compound 305, N-(4-(1H-indol-5-yl)phenyl)-N-(7-(hydroxyamino)-7-ooxheptyl)picolinamide] was run?
Its IC50 is 0.02 to 0.05 µM.

With `O=C(CCCCCCN(C(=O)N1CCOCC1)c1ccc(-c2ccc3cc[nH]c3c2)cc1)NO` [Compound 306, N-(4-(1H-indol-6-yl)phenyl)-N-(7-(hydroxyamino)-7-oxoheptyl)morpholine-4-carboxamide] as the molecule, how does the IC50 read?
Its IC50 is 0.01 to 0.02 µM.

For `CN1CCN(C(=O)N(CCCCCCC(=O)NO)c2ccc(-c3ccc4cc[nH]c4c3)cc2)CC1` [Compound 309, N-(4-(1H-indol-6-yl)phenyl)-N-(7-(hydroxyamino)-7-oxoheptyl)-4-methylpiperazine-1-carboxamide], which IC50 is on record?
Its IC50 is 0.01 to 0.02 µM.

Which IC50 does the source give for `CN1CCN(C(=O)N(CCCCCCC(=O)NO)c2ccc(-c3ccc4[nH]ccc4c3)cc2)CC1` [Compound 313, N-(4-(1H-indol-5-yl)phenyl)-N-(7-(hydroxyamino)-7-oxoheptyl)-4-methylpiperazine-1-carboxamide] here?
The IC50 was 0.02 to 0.05 µM.

With `CCS(=O)(=O)N(CCCCCCC(=O)NO)c1ccc(-c2ccc3[nH]ccc3c2)cc1` [Compound 314, 7-(N-(4-(1H-indol-5-yl)phenyl)ethylsulfonamido)-N-hydroxyheptanamide] as the molecule, how does the IC50 read?
Its IC50 is 0.02 to 0.05 µM.

How did the IC50 turn out when `CS(=O)(=O)N(CCCCCCC(=O)NO)c1ccc(-c2ccc3cc[nH]c3c2)nc1` [Compound 326, 7-(N-(6-(1H-indol-6-yl)pyridin-3-yl)methylsulfonamido)-N-hydroxyheptanamide] was run?
Its IC50 is 0.02 to 0.05 µM.

How did the IC50 turn out when `Cn1ncc2ccc(-c3ccc(N(CCCCCCC(=O)NO)S(C)(=O)=O)cn3)cc21` [Compound 327, N-hydroxy-7-(N-(6-(1-methyl-1H-indazol-6-yl)pyridin-3-yl)methylsulfonamido)heptanamide] was run?
Its IC50 is 0.05 to 0.1 µM.

How did the IC50 turn out when `CS(=O)(=O)N(CCCCCCC(=O)NO)c1ccc(-c2ccc3[nH]ccc3c2)nc1` [Compound 328, 7-(N-(6-(1H-indol-5-yl)pyridin-3-yl)methylsulfonamido)-N-hydroxyheptanamide] was run?
Its IC50 is 0.02 to 0.05 µM.

Which IC50 does the source give for `CN1CCCN(C(=O)N(CCCCCCC(=O)NO)c2ccc(-c3ccc4cc[nH]c4c3)cc2)CC1` [Compound 330, N-(4-(1H-indol-6-yl)phenyl)-N-(7-(hydroxyamino)-7-oxoheptyl)-4-methyl-1,4-diazepane-1-carboxamide] here?
Its IC50 is 0.05 to 0.1 µM.

With `CCN1CCN(C(=O)N(CCCCCCC(=O)NO)c2ccc(-c3ccc4[nH]ccc4c3)cc2)CC1` [Compound 340, N-(4-(1H-indol-5-yl)phenyl)-4-ethyl-N-(7-(hydroxyamino)-7-oxoheptyl)piperazine-1-carboxamide] as the molecule, how does the IC50 read?
Its IC50 is 0.01 to 0.02 µM.

With `CN1CCN(C(=O)N(CCCCCCC(=O)NO)c2ccc(-c3ccc4c(ccn4C)c3)cc2)CC1` [Compound 341, N-(7-(hydroxyamino)-7-oxoheptyl)-4-methyl-N-(4-(1-methyl-1H-indol-5-yl)phenyl)piperazine-1-carboxamide] as the molecule, how does the IC50 read?
The IC50 was 0.02 to 0.05 µM.

How did the IC50 turn out when `CN1CCN(S(=O)(=O)N(CCCCCCC(=O)NO)c2ccc(-c3ccc4cnn(C)c4c3)cc2)CC1` [Compound 342, N-hydroxy-7-(4-methyl-N-(4-(1-methyl-1H-indazol-6-yl)phenyl)piperazine-1-sulfonamido)heptanamide] was run?
The IC50 was 0.02 to 0.05 µM.

For `CN1CCN(C(=O)N(CCCCCCC(=O)NO)c2ccc(-c3ccc4c(cnn4C)c3)cc2)CC1` [Compound 350, N-(7-(hydroxyamino)-7-oxoheptyl)-4-methyl-N-(4-(1-methyl-1H-indazol-5-yl)phenyl)piperazine-1-carboxamide], which IC50 is on record?
The IC50 was 0.02 to 0.05 µM.

`CCN1CCN(C(=O)N(CCCCCCC(=O)NO)c2ccc(-c3ccc4c(cnn4C)c3)cc2)CC1` [Compound 351, 4-ethyl-N-(7-(hydroxyamino)-7-oxoheptyl)-N-(4-(1-methyl-1H-indazol-5-yl)phenyl)piperazine-1-carboxamide] was tested. Which IC50 did it give?
Its IC50 is 0.02 to 0.05 µM.

With `CN1CCN(C(=S)N(CCCCCCC(=O)NO)c2ccc(-c3ccc4cc[nH]c4c3)cc2)CC1` [Compound 357, 7-(N-(4-(1H-indol-6-yl)phenyl)-4-methylpiperazine-1-carbothioamido)-N-hydroxyheptanamide] as the molecule, how does the IC50 read?
Its IC50 is 0.05 to 0.1 µM.

With `CN1CCN(C(=S)N(CCCCCCC(=O)NO)c2ccc(-c3ccc4[nH]ccc4c3)cc2)CC1` [Compound 358, 7-(N-(4-(1H-indol-5-yl)phenyl)-4-methylpiperazine-1-carbothioamido)-N-hydroxyheptanamide] as the molecule, how does the IC50 read?
The IC50 was 0.02 to 0.05 µM.

For `CN1CCN(C(=S)N(CCCCCCC(=O)NO)c2ccc(-c3ccc4c(cnn4C)c3)cc2)CC1` [Compound 359, N-hydroxy-7-(4-methyl-N-(4-(1-methyl-1H-indazol-5-yl)phenyl)piperazine-1-thiocarboamido)heptanamide], which IC50 is on record?
The IC50 was 0.02 to 0.05 µM.
